What was measured:
[1] = Body temperature measured in the course of heat pain tests; settings: rats, injection of PAM in heat pain tests
[2] = tested on: rats; experiment: Heat pain test, paw withdrawal latency after intraplantar injection; assay type: in vivo, Sprague-Dawley rats; settings: for paw withdrawal latency / analgesic effect: intradermal hind paw injection, 100 μl, capsaicin 150 μM alone or with MRS1477 50 μM or TAT-De3 150 μM
Procedure: Animals. Male Sprague-Dawley rats (200-250 g, Charles River Laboratories, Inc.) were housed under a 12 h light-dark cycle and allowed access to food and water ad libitum. The ambient temperature of the holding and testing; rooms was ˜22° C. All procedures involving animals were carried out in strict compliance with the National Institutes of Health and institutional guidelines for the humane care of animals and were approved by the Animal Care and Use Committee of Zhejiang University (Approval ID: ZJU20190100). All efforts were made to minimize both animal numbers and distress within the experiments.
Animal behavioral measurements. A 10 mM stock solution of MRS1477 was prepared in 100% DMSO and further diluted in vehicle to 2 μg/100 μl (50 μM). […] Capsaicin-only injectates contained an equal amount of DMSO as those with MRS1477. All intraplantar injections were made using a. 29 G×½″, 3/10 cc insulin syringe. The experimenter was blinded to the identity of the injectates in the various behavioral experiments.
Thermal hyperalgesia measurement was performed as reported previously (11, 35). Briefly, unrestrained rats were placed on a clear glass platform which a light beam was applied onto the plantar hind paws of the animals under a small plastic cage which allowed them to move freely. The thermal nociceptive response was defined as the latency between light stimulus onset and paw withdrawal using a feedback-controlled shutdown unit. The intensity of the light stimulus was set such that naive rats responded with a latency of approximately 5 s. Each paw was tested one time. In the absence of a response within a predetermined maximum latency (30 s), the test was terminated to prevent tissue damage. On the day of testing, rats were allowed to habituate for at least 30 min prior to thermal stimulation. […]
We observed significant analgesic effects of TAT-De3 intradermally injected into the hind paw of rats against thermal pain. […] We recorded paw withdrawal latency to reflect the pain sensation. […]

[3] = tested on: TRPV1; experiment: Calcium imaging (Fluo-4) of capsaicin activation in transfected HEK293 cells; assay type: cell-based; settings: 0.5 nM capsaicin; cells expressing only TRPV1
Procedure: We then investigated whether, upon binding of the designed proteins, TRPV1 activation was positively modulated. […] Probenecid (2 mM) was included in all solutions to prevent Fluo-4 leakage from cells. At the end of incubation, cells were washed three times with ECS and incubated in the same solution for another 20 min at room temperature to complete the intracellular hydrolysis process of the AM ester, which converts the non-fluorescent Fluo-4/AM into the fluorescent version Fluo-4.
Coverslip with dye-loaded cells was placed in the quick-release magnetic chamber (Warner) and mounted on the stage of a Nikon Eclipse TE2000-U microscope system equipped with a Roper Cascade 128B CCD camera. Fluo-4 was excited by an Argon laser with a filter set of Z488/10 (excitation), z488rdc (dichroic) and recorded through an emission filter HQ5001p (all from Chroma). The duration of light exposure was controlled by a computer-driven mechanical shutter (Uniblitz). Cell images were acquired sequentially with an exposure period of 200 ms at an interval of 1 s. The shutter and the camera were controlled and synchronized by MetaMorph software (Universal Imaging).

hyperthermia (body temperature) [1] | SMILES | duration of analgesic effects after a single injection ([2]; co-injected with capsaicin 150 μM) | paw withdrawal latency / analgesic effect [2] | calcium influx [3]
did not cause hyperthemia | CCOC(=O)C1=C(c2ccccc2)NC(C)=C(C(=O)SCCOC)C1CC (centres unmarked) [MRS1477] | diminished after three days | paw withdrawal latency was increased | 
 | COc1cc(CNC(=O)CCCC/C=C/C(C)C)ccc1O [capsaicin, reference compound] |  | no change in the paw withdrawal latency | did not illicit calcium influx

— patent publication US20240166695A1, “PEPTIDIC POSITIVE ALLOSTERIC MODULATORS TARGETING TRPV1” (priority 2021, published 2024)
